Tests used:
[1] = biological target: T1, 5-hydroxytryptamine receptor 1A (Rattus norvegicus, UniProt P19327); format: cell membranes, CHO-K1, Membrane; conditions: for Ki: read-out: Ki; on all read-outs here: in other assays of this panel Not Active means under 50% inhibition at 10 µM
T1 sequence (P19327 whole entry): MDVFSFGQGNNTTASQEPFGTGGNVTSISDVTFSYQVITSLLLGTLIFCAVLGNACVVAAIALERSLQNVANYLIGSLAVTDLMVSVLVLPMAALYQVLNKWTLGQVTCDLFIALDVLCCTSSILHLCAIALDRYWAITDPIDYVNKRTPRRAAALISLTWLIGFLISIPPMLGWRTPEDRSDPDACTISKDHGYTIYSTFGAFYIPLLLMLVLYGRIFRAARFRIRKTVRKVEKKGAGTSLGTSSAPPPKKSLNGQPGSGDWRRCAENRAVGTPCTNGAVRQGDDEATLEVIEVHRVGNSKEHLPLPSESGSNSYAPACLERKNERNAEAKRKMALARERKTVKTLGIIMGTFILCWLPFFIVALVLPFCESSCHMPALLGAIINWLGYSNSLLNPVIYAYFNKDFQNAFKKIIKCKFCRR

[2] = DRUGMATRIX: Leukotriene, BLT (LTB4) radioligand binding (ligand: [3H]LTB4); format: cell membranes, Membrane; conditions: u-937; Not Active = under 50% inhibition at 10 µM
[3] = DRUGMATRIX: Interleukin IL-1 radioligand binding (ligand: [125I] interleukin 1beta); format: cell membranes, Membrane; conditions: nih3t3; Not Active = under 50% inhibition at 10 µM
[4] = biological target: Kappa-type opioid receptor (Homo sapiens, UniProt P41145); test: DRUGMATRIX: Opiate kappa (OP2, KOP) radioligand binding (ligand: [3H] Diprenorphine); format: cell membranes, HEK293, Membrane; conditions: hek293; Not Active = under 50% inhibition at 10 µM
[5] = biological target: D(3) dopamine receptor (Homo sapiens, UniProt P35462); test: DRUGMATRIX: Dopamine D3 radioligand binding (ligand: [3H] Spiperone); format: cell membranes, CHO, Membrane; conditions: cho
[6] = biological target: T2, Neuropeptide Y receptor type 2 (Homo sapiens, UniProt P49146); format: cell membranes, Membrane; conditions: kan-ts; further: in other assays of this panel Not Active means under 50% inhibition at 10 µM
T2 sequence (P49146 whole entry): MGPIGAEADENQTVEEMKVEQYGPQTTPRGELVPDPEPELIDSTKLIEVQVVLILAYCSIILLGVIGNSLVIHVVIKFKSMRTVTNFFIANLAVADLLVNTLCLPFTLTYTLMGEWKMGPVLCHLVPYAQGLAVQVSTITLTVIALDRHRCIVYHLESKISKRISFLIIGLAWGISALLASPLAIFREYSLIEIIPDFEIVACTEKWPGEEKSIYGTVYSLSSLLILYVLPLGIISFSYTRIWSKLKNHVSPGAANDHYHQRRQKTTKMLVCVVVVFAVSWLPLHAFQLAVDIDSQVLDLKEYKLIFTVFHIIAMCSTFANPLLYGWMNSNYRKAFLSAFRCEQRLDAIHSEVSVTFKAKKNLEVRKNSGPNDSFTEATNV

Chain of D(3) dopamine receptor (P35462 whole entry): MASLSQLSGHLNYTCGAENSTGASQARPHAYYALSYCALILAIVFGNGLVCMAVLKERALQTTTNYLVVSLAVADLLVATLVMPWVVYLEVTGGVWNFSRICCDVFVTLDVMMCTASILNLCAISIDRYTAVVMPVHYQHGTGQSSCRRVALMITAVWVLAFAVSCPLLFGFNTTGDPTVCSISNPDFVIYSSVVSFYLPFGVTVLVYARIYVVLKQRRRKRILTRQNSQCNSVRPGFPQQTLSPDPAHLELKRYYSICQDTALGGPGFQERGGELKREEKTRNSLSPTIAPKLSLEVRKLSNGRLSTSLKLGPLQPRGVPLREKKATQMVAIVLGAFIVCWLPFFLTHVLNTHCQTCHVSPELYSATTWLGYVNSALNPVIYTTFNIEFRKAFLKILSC
Chain of Kappa-type opioid receptor (P41145 whole entry): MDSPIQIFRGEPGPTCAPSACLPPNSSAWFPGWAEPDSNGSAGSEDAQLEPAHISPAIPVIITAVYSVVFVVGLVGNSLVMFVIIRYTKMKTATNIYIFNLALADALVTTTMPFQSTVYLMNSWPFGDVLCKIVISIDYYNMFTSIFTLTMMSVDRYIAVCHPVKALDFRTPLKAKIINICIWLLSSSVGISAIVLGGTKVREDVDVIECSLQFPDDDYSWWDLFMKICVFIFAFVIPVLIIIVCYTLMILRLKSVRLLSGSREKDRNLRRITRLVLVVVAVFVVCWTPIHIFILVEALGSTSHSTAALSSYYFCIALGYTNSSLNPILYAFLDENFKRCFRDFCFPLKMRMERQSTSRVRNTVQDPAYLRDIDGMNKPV

Row | SMILES | IC50 ([1]; cho-k1) | IC50 [2] | Ki [2] | IC50 [3] | Ki [3] | IC50 [4] | IC50 [5] | IC50 [6] | IC50 ([1]; read-out: IC50) [nM] | Ki [1] [nM]
1 | Cc1c(F)c(N2CCNC(C)C2)cc2c1c(=O)c(C(=O)O)cn2C1CC1 (configuration not stated) [GREPAFLOXACIN] | Not Active | Not Active | Not Active | Not Active | Not Active | Not Active | Not Active | Not Active | – | –
2 | CC(C(=O)O)c1ccc(-c2ccccc2)c(F)c1 (configuration not stated) [FLURBIPROFEN] | Not Active | Not Active | Not Active | Not Active | Not Active | Not Active | Not Active | Not Active | – | –
3 | COC(=O)c1ccccc1O [METHYL SALICYLATE] | Not Active | Not Active | Not Active | Not Active | Not Active | Not Active | Not Active | Not Active | – | –
4 | O=C(O)c1cccnc1 [NIACIN] | Not Active | Not Active | Not Active | Not Active | Not Active | Not Active | Not Active | Not Active | – | –
5 | CC[C@H](C)C(=O)O[C@H]1C[C@@H](C)C=C2C=C[C@H](C)[C@H](CC[C@@H]3C[C@@H](O)CC(=O)O3)[C@H]21 [LOVASTATIN] | Not Active | Not Active | Not Active | Not Active | Not Active | Not Active | Not Active | Not Active | – | –
6 | CN(C(=O)CCCOc1ccc2[nH]c(=O)ccc2c1)C1CCCCC1 [CILOSTAMIDE] | Not Active | Not Active | Not Active | Not Active | Not Active | Not Active | Not Active | Not Active | – | –
7 | CCOC(=O)[C@H](CCc1ccccc1)N[C@@H](C)C(=O)N1CCC[C@H]1C(=O)O | Not Active | Not Active | Not Active | Not Active | Not Active | Not Active | Not Active | Not Active | – | –
8 | O=C(O)c1cc(=O)c2c(OCC(O)COc3cccc4oc(C(=O)O)cc(=O)c34)cccc2o1 [CROMOLYN] | Not Active | Not Active | Not Active | Not Active | Not Active | Not Active | Not Active | Not Active | – | –
9 | Cc1cccc(Nc2cc(Cl)nc(SCC(=O)O)n2)c1C [PIRINIXIC ACID] | Not Active | Not Active | Not Active | Not Active | Not Active | Not Active | Not Active | Not Active | – | –
10 | CC[C@H]1OC(=O)[C@H](C)[C@@H](O[C@H]2C[C@@](C)(OC)[C@@H](O)[C@H](C)O2)[C@H](C)[C@@H](O[C@@H]2O[C@H](C)C[C@H](N(C)C)[C@H]2O)[C@](C)(OC)C[C@@H](C)C(=O)[C@H](C)[C@@H](O)[C@]1(C)O [CLARITHROMYCIN] | Not Active | Not Active | Not Active | Not Active | Not Active | Not Active | Not Active | Not Active | – | –
11 | CCc1oc2ccccc2c1C(=O)c1cc(Br)c(O)c(Br)c1 [BENZBROMARONE] | Not Active | Not Active | Not Active | Not Active | Not Active | Not Active | Not Active | Not Active | – | –
12 | CC[C@]1(O)CC[C@H]2[C@@H]3CCC4=CCCC[C@@H]4[C@H]3CC[C@@]21C | Not Active | Not Active | Not Active | Not Active | Not Active | Not Active | Not Active | Not Active | – | –
13 | CC(C)(Oc1ccc(C2CC2(Cl)Cl)cc1)C(=O)O (configuration not stated) [CIPROFIBRATE] | Not Active | Not Active | Not Active | Not Active | Not Active | Not Active | Not Active | Not Active | – | –
14 | CO[C@H]1[C@@H](O)[C@H](N)[C@@H](O[C@H]2O[C@H]([C@H](C)N)CC[C@H]2N)[C@H](O)[C@@H]1N(C)C(=O)CN [ASTROMICIN] | Not Active | Not Active | Not Active | Not Active | Not Active | Not Active | Not Active | Not Active | – | –
15 | CNC(=C[N+](=O)[O-])NCCSCc1csc(CN(C)C)n1 [NIZATIDINE] | Not Active | Not Active | Not Active | Not Active | Not Active | Not Active | Not Active | Not Active | – | –
16 | N=C(N)N/N=C/c1c(Cl)cccc1Cl [GUANABENZ] | – | Not Active | Not Active | Not Active | Not Active | Not Active | Not Active | Not Active | 2070 | 1180
17 | COc1ccc2cc(CCC(C)=O)ccc2c1 [NABUMETONE] | Not Active | Not Active | Not Active | Not Active | Not Active | Not Active | Not Active | Not Active | – | –
18 | CC(C(=O)O)c1ccc(CC2CCCC2=O)cc1 (configuration not stated) [LOXOPROFEN] | Not Active | Not Active | Not Active | Not Active | Not Active | Not Active | Not Active | Not Active | – | –
19 | CCCCCC[C@H]1C(=O)O[C@H](C)[C@H](NC(=O)c2cccc(NC=O)c2O)C(=O)O[C@@H](C)[C@@H]1OC(=O)CC(C)C [ANTIMYCIN A] | Not Active | Not Active | Not Active | Not Active | Not Active | Not Active | Not Active | Not Active | – | –
20 | Cc1cnc(C(=O)NCCc2ccc(S(=O)(=O)NC(=O)NC3CCCCC3)cc2)cn1 [GLIPIZIDE] | Not Active | Not Active | Not Active | Not Active | Not Active | Not Active | Not Active | Not Active | – | –
21 | O=c1cc(-c2ccccc2)oc2ccc3ccccc3c12 [BETA-NAPHTHOFLAVONE] | Not Active | Not Active | Not Active | Not Active | Not Active | Not Active | Not Active | Not Active | – | –
22 | CC(=O)O[C@]1(C(C)=O)CC[C@H]2[C@@H]3C=C(Cl)C4=CC(=O)[C@@H]5C[C@@H]5[C@]4(C)[C@H]3CC[C@@]21C [CYPROTERONE ACETATE] | Not Active | Not Active | Not Active | Not Active | Not Active | Not Active | Not Active | Not Active | – | –
23 | CCN[C@@H](C)Cc1cccc(C(F)(F)F)c1 [DEXFENFLURAMINE] | – | Not Active | Not Active | Not Active | Not Active | Not Active | Not Active | Not Active | 3400 | 1940
24 | Nn1nnc2ccccc21 | Not Active | Not Active | Not Active | Not Active | Not Active | Not Active | Not Active | Not Active | – | –
25 | O=C(O)Cc1ccc(-c2ccccc2)cc1 [FELBINAC] | Not Active | Not Active | Not Active | Not Active | Not Active | Not Active | Not Active | Not Active | – | –

— ChEMBL document CHEMBL1909046, “DrugMatrix in vitro pharmacology data”
